From patent US20220338471A1, “HONEY BEE-SAFE ACARICIDAL COMPOUNDS” (Kansas State University Research Foundation, priority 2019, published 2022)
“And” between values parts separate entries of the source, which are not always exact repeats. Equal values may be shown once. Square brackets hold non-standard residues; d marks the D form. Peptide text beside a SMILES is read from it. Oic = O=C(O)[C@@H]1C[C@@H]2CCCC[C@@H]2N1

Tests used:
Varroa mites = assay: Varroa mite toxicity test (forced feeding, 200 nL drop on the gnathosoma; paralysis/death counted); assay type: in vivo, Varroa destructor; settings: 48-hour treatment, feeding assay
Protocol: Varroa mite toxicity test: Adult female Varroa mites were collected using a sugar roll method from honey bee hives located at the East Campus apiary of the University of Nebraska (Lincoln, Nebr. USA). The hives were not treated with chemicals for honey bee parasites or pathogens. The mites were sorted in the laboratory with a paint brush and tested within 4 h post collection. The mites were placed in 9 cm diameter Petri dishes (Fisher Scientific) lined with filter paper. The dorsal side of the mites was secured to a strip of tape placed on the filter paper. Ten mites were secured to the tape in each dish and three dishes were used for each treatment (i.e., 30 mites/treatment). The peptide mimics were prepared in autoclaved ddH2O to a concentration of 0.1 nM for 2334, 2336, and Ac-2442 and 3 nM for 2326. Each peptide mimic was delivered as a 200 nL aliquot to the gnathosoma of the mites with autoclaved ddH2O serving as the untreated control. Following exposure to the peptide mimics, the number of affected (i.e., dead and/paralyzed) was observed and recorded at 1, 2, 6, 12, 24, and 48 h. The percent effect for each treatment was analyzed using a one-way analysis of variance (ANOVA) with a Tukey's post-hoc test (GraphPad Prism, La Jolla, Calif.; p<0.05).
In the continued bioassay (FIG. 4 and FIG. 5), the toxicities were assessed by counting paralysis/death in feeding assay. […]

worker honey bees = assay: Injection into the thorax of worker honey bees (negative effects); assay type: in vivo, honey bee; settings: injection of 50 nL at 200 μM into the thorax, 24-hour observation, n=4
Protocol: Honey bee FMRFamide receptor was cloned and expressed in the same system as described for the procotolin receptor. […] Potential effects of the peptidomimetics 2439, 2334, 2336, Ac-2442, and H2O control were tested by injections of the compounds into the thorax of worker honey bees.

[1] = target: T1, varroa mite proctolin receptor (VdProctR) (Varroa destructor, UniProt A0A7T1TE40); assay: Receptor activity assay: luminescence in cells transiently transfected with varroa mite proctolin receptor; assay type: cell-based
T1 sequence (A0A7T1TE40 1-530): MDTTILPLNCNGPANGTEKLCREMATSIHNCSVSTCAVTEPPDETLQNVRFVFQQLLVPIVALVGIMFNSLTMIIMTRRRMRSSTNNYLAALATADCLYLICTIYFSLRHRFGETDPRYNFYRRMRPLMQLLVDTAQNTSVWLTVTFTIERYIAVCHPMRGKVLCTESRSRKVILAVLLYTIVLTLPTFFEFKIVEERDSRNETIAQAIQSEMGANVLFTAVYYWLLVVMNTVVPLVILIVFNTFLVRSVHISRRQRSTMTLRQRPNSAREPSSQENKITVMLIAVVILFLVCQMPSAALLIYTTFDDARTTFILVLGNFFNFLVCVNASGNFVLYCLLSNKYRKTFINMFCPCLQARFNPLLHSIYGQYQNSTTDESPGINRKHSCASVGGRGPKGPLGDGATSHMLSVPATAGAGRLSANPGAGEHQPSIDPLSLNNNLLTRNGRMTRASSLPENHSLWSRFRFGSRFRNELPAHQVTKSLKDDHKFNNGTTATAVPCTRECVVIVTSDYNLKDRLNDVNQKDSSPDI
Protocol: Approximately thirty hours after transfection, the cells were collected and preincubated with coelenterazine h for the functional assay. The ligands in serial dilutions were loaded into 96-well opaque plates. Cells treated with coelenterazine h were injected into each well on an Orion microplate luminometer (Berthold) luminescent plate reader. The luminescence was measured for 20 seconds immediately after the cell injections. Data analyses were performed to determine the accumulated luminescence value for 20 seconds after extraction of blank-well luminescence. A dose-response curve was generated and the EC50 (50% effective concentration) was calculated in Origin 7 (OriginLab).

## CC(C)C[C@H](NC(=O)[C@H](Cc1ccc(O)cc1)NC(=O)[C@@H](N)CCCNC(=N)N)C(=O)N1[C@H](C(=O)N[C@H](C(=O)O)[C@@H](C)O)C[C@@H]2CCCC[C@@H]21 [Analog 2336, RYL[Oic]T] (H-RYL[Oic]T-OH; N-terminus assumed)
Varroa mites
  Percent effect (paralyzed or dead mites): 100%
Worker honey bees
  Negative effects in worker honey bees: did not show any negative effects
[1]; at 1 μM and 10 μM
  Activity at high concentrations compared with proctolin: higher than that of proctolin
[1]; first set of experiments, EC50 relative to proctolin (0.22 nM)
  Fold change: 5.95
[1]; first set of experiments, varroa mite proctolin receptor, read-out: EC50
  EC50: 1.3 nM and 1.31 nM
[1]; in words
  Agonist activity / potency on the Varroa mite proctolin receptor, in words: strong agonists
